Where only a bound is given, the exact number is not on record here.

The target of this experiment is Glycogen synthase kinase-3 beta (Homo sapiens, UniProt P49841). The experiment is described as follows: concentration-response blocking of human GSK3B – biochemical, luminescence, cell-free homogeneous, retest, dose response (AID 434954).
Sequence of Glycogen synthase kinase-3 beta (P49841 whole entry): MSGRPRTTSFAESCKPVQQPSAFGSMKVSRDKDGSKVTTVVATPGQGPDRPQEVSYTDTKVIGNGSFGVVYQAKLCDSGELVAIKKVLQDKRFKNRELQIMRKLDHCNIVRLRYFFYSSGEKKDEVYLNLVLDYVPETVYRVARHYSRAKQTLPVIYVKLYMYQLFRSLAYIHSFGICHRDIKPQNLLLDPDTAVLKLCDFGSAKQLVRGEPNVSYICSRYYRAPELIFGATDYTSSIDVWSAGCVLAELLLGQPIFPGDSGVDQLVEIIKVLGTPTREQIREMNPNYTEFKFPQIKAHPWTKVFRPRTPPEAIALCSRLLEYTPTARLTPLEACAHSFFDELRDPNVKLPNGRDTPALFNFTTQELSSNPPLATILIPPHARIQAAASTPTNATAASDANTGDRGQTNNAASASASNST
As to `O=C(CSc1ncnc2c1cnn2-c1ccc(F)cc1)NCC1CCCO1` (stereo unspecified) [SMR000806858], the EC50 was greater than 300 µM.

For the molecule `COc1cc2[nH]c(=O)n3nc(-c4ccccc4)nc3c2cc1OC` [8,9-dimethoxy-2-phenyl[1,2,4]triazolo[1,5-c]quinazolin-5(6H)-one], the EC50 was determined as 5.34 µM.

The molecule `Cc1ccc(Nc2nc(N)c([N+](=O)[O-])c(NCCO)n2)cc1` [MLS000333433] yielded an EC50 of 79.7 µM.

In the case of `CCOC(=O)c1[nH]c(C)c(C(=O)NCc2ccc(OC)cc2)c1C`, the EC50 is greater than 300 µM.

Consider `CCOc1ccc2ncc(C(=O)c3ccc(OC)cc3)c(N3CCN(CC)CC3)c2c1` [[6-ethoxy-4-(4-ethylpiperazin-1-yl)quinolin-3-yl](4-methoxyphenyl)methanone], for which the EC50 is greater than 300 µM.

For the molecule `O=C(NCc1ccco1)C(=O)c1cn(CC(=O)N2CCCC2)c2ccccc12` [N-(furan-2-ylmethyl)-2-oxidanylidene-2-[1-(2-oxidanylidene-2-pyrrolidin-1-yl-ethyl)indol-3-yl]ethanamide], the EC50 is greater than 300 µM.

Molecule `CCOC(=O)c1c(C)[nH]c(C)c1S(=O)(=O)N(C)CC(=O)Nc1cccc(F)c1` [ethyl 4-[[2-(3-fluoroanilino)-2-oxoethyl]-methylsulfamoyl]-2,5-dimethyl-1H-pyrrole-3-carboxylate] displayed an EC50 greater than 300 µM.

Take `Cc1ccc(NC(=O)CSCc2ccc(F)cc2)cc1` [MLS000701707]: the EC50 was greater than 300 µM.

In the case of `CCCNC(=O)c1ccc(SCC(=O)N(CC)CC)c([N+](=O)[O-])c1`, the EC50 was greater than 300 µM.

In the case of `COc1ccc(CN=Nc2ccc([N+](=O)[O-])cc2)cc1O` [MLS001198430], the EC50 is greater than 300 µM.

`COc1ccccc1Nc1nc(NCC(C)C)nc(N)c1[N+](=O)[O-]` [SMR000436174]: the EC50 worked out at 0.888 µM.

`Cc1ccccc1-c1nnc(SCc2ccc(F)cc2)o1` [2-[(4-fluorophenyl)methylsulfanyl]-5-(2-methylphenyl)-1,3,4-oxadiazole] registered an EC50 greater than 300 µM.

With `O=S(=O)(c1ccc(F)cc1)c1nc(-c2ccco2)oc1Nc1ccccc1` [4-(4-fluorophenyl)sulfonyl-2-(furan-2-yl)-N-phenyl-1,3-oxazol-5-amine], the EC50 was greater than 300 µM.

Molecule `CC(=O)Nc1ccc(S(=O)(=O)Nc2ccc3c(c2)OCCO3)cc1Cl` [MLS000850184] displayed an EC50 greater than 300 µM.

For the molecule `Cc1ccccc1NC(=O)Nc1ccccn1` [1-(2-methylphenyl)-3-pyridin-2-ylurea], the EC50 was greater than 300 µM.

`CNc1nc(-c2ccccc2)nc(-c2ccccc2)c1C#N` [MLS000539511] yielded an EC50 greater than 300 µM.

In the case of `CCOCCCn1c(=NC(C)=O)c(C#N)cc2c(=O)n3cccc(C)c3nc21` [SMR000436200], the concentration for a half-maximal effect (EC50) is greater than 300 µM.

`COc1cccc(/C=C2/Sc3ccc(C(=O)NCCN4CCCCCC4)cc3NC2=O)c1` [MLS001030753] returned an EC50 of 94.6 µM.

In turn, `C=c1cc2[nH]c(=O)c(=Cc3ccc(OCC)c(OC)c3)c(=N)n2o1` [SMR000309341] had an EC50 greater than 300 µM.

For the molecule `OC1(C#CCN2CCOCC2)CCCCC1`, the 50% effective concentration (EC50) is greater than 300 µM.

`Cc1cc2cc(CN(CCCN3CCOCC3)C(=O)NC3CCCCC3)c(=O)[nH]c2cc1C` [3-cyclohexyl-1-[(6,7-dimethyl-2-oxo-1H-quinolin-3-yl)methyl]-1-(3-morpholin-4-ylpropyl)urea]: the EC50 is greater than 300 µM.

With `COc1ccc(NC(=O)c2cccc(N3C(=O)c4cccc([N+](=O)[O-])c4C3=O)c2)cc1` [MLS001125857], the EC50 was greater than 300 µM.

Molecule `Cc1nn(-c2ccccc2)c2c1cc1c(=O)n(C)c(=O)nc-1n2-c1ccccc1F` [MLS000769580] gave an EC50 of 106 µM.

Consider `CC(C)c1ccc(NS(=O)(=O)c2ccc(Cl)nc2)cc1` [6-chloro-N-(4-propan-2-ylphenyl)pyridine-3-sulfonamide], for which the EC50 is greater than 300 µM.

The molecule `COc1cc([CH-]N=[O+]C)ccc1Oc1ccc([N+](=O)[O-])cc1[N+](=O)[O-]` [MLS000699890] came in with a concentration for a half-maximal effect (EC50) greater than 300 µM.

`O=C(CN1C(=O)CCC1=O)Nc1ccc2c3c(cccc13)CC2` [N-(1,2-dihydroacenaphthylen-5-yl)-2-(2,5-dioxo-1-pyrrolidinyl)acetamide]: the half-maximal effective concentration (EC50) was greater than 300 µM.

`CN1CCN(C(=O)c2ccc(OCCOc3ccccc3)cc2)CC1` [(4-methylpiperazin-1-yl)-[4-(2-phenoxyethoxy)phenyl]methanone] returned an EC50 greater than 300 µM.

Take `O=C(Nc1ccccc1)Nc1ccncc1`: the concentration for a half-maximal effect (EC50) was greater than 300 µM.

`c1c2c(cc3sc(N4CCOCC4)nc13)OCCO2` [2-(4-morpholinyl)-6,7-dihydro-[1,4]dioxino[2,3-f][1,3]benzothiazole] displayed an EC50 greater than 300 µM.

`CS(=O)(=O)N(Cc1ccccc1)c1ccc(C(=O)Nc2ccccc2Sc2ccccc2)cc1` [4-[methylsulfonyl-(phenylmethyl)amino]-N-(2-phenylsulfanylphenyl)benzamide] showed an EC50 greater than 300 µM.

In turn, `COc1ccc(-c2nn(-c3ccccc3)cc2CN=Nc2ccccn2)cc1` [MLS000336205] gave a half-maximal effective concentration (EC50) greater than 300 µM.

`CCC(C)Nc1nc(N)c([N+](=O)[O-])c(Nc2cc(OC)ccc2OC)n1` (stereo unspecified) [N2-butan-2-yl-N4-(2,5-dimethoxyphenyl)-5-nitro-pyrimidine-2,4,6-triamine] came in with an EC50 of 0.539 µM.

Molecule `COc1ccc2c(c1)cc1c(=O)n(CC(=O)NCCCN3CCOCC3)nc(C)n12` [SMR000624522] came in with an EC50 greater than 300 µM.

In turn, `CN(c1ncnc(N)c1[N+](=O)[O-])C1CCCCC1` displayed an EC50 of 2.57 µM.

Turning to `COc1ccccc1NC(=O)C(C)Nc1ccc(C)c(Cl)c1` (stereo unspecified), the EC50 is greater than 300 µM.

Consider `COc1ccc(C(=O)ON=C(N)c2ccccn2)cc1` [SMR000608101], for which the half-maximal effective concentration (EC50) is 13.2 µM.

As for `CCCCOC(=O)C1C(C)=Nc2ncnn2C1c1cc(OC)c(OC)cc1OC` (stereo unspecified) [butyl 5-methyl-7-(2,4,5-trimethoxyphenyl)-4,7-dihydro[1,2,4]triazolo[1,5-a]pyrimidine-6-carboxylate], the EC50 was greater than 300 µM.

As to `Fc1cccc(Cl)c1CSc1nnc(-c2ccncc2)o1` [2-[(2-chloro-6-fluorophenyl)methylthio]-5-pyridin-4-yl-1,3,4-oxadiazole], the response was half-maximal at 9.25 µM (EC50).

Regarding `CCOC(=O)c1sc(=S)n(-c2ccccc2OC)c1N`, the EC50 was greater than 300 µM.

As for `CC(C(=O)NCc1ccccc1)n1cc([N+](=O)[O-])cn1` (stereo unspecified) [SMR000559338], the EC50 was greater than 300 µM.

In turn, `COc1cccc(-n2sc3c(c2=S)-c2cc(OC)ccc2NC3(C)C)c1` showed an EC50 greater than 300 µM.

Consider `c1ccc2c(c1)OCC(CNCC1COc3ccccc3O1)O2` (stereo unspecified) [1-(2,3-dihydro-1,4-benzodioxin-3-yl)-N-(2,3-dihydro-1,4-benzodioxin-3-ylmethyl)methanamine], for which the 50% effective concentration (EC50) was greater than 300 µM.

For `CCCNc1nc(N)nc(-c2cc(Cl)ccc2OC)n1` [MLS000538216], the EC50 was greater than 300 µM.

Take `O=C(O)c1ccccc1Nc1ccccc1C(=O)O` [2-[(2-carboxyphenyl)amino]benzoic acid]: the EC50 is greater than 300 µM.

In the case of `COc1ccc(OC)c(Nc2nc(NCCCN(C)C)nc(N)c2[N+](=O)[O-])c1` [3-[[4-amino-6-(2,5-dimethoxyanilino)-5-nitro-pyrimidin-2-yl]amino]propyl-dimethyl-amine], the EC50 was found to be 2.74 µM.

For the molecule `O=Cc1ccc(Oc2nc(Cl)ncc2F)cc1` [4-[(2-chloro-5-fluoro-4-pyrimidinyl)oxy]benzaldehyde], the concentration giving a half-maximal response (EC50) was greater than 300 µM.

As to `C[C@@H]1O[C@@H](Oc2c(-c3cc(O)c(O)c(O)c3)oc3cc(O)cc(=O)c-3c2O)[C@H](O)[C@H](O)[C@H]1O` [3-[(2S,3R,4R,5R,6S)-6-methyl-3,4,5-tris(oxidanyl)oxan-2-yl]oxy-5,7-bis(oxidanyl)-2-[3,4,5-tris(oxidanyl)phenyl]chromen-4-one], the EC50 was greater than 300 µM.

For `Cc1ccc(CSc2nnc(-c3ccncc3)o2)c(C)c1` [SMR000280552], the EC50 was 14.5 µM.

As for `CCN1CCN(C(=O)c2cc3cc4cc(OC)ccc4nc3s2)CC1` [MLS000091315], the EC50 was greater than 300 µM.

`N#Cc1c(-c2cccs2)nc(SCc2ccc(Cl)cc2)[nH]c1=O` [MLS000705749] came in with an EC50 greater than 300 µM.

The molecule `CCCN(CCC)c1nc(N)nc(-c2cc(Cl)ccc2OC)n1` [MLS000538209] showed a concentration for a half-maximal effect (EC50) greater than 300 µM.

Molecule `CCOc1cccc(-c2c(C(=O)NN=C(C)c3cccs3)nnn2-c2nonc2N)c1` [1-(4-azanyl-1,2,5-oxadiazol-3-yl)-5-(3-ethoxyphenyl)-N-(1-thiophen-2-ylethylideneamino)-1,2,3-triazole-4-carboxamide] came in with an EC50 of 96.9 µM.

`Cc1ccc(C)c(CSc2nnc(-c3cccnc3)o2)c1` [MLS000074430] had an EC50 greater than 300 µM.

Molecule `O=C(NN=Cc1cc(Br)ccc1O)c1ccccc1Cl` [N'-[(E)-(3-bromo-6-oxocyclohexa-2,4-dien-1-ylidene)methyl]-2-chlorobenzohydrazide] registered an EC50 greater than 300 µM.

Turning to `COCCCNc1nc(N)c([N+](=O)[O-])c(NC2CCCCC2)n1` [MLS001165157], the EC50 came to 0.86 µM.

The molecule `Cc1cccc(N2CCN(C(=O)c3csc4ccccc34)CC2C)c1` (stereo unspecified) [4-(1-benzothien-3-ylcarbonyl)-2-methyl-1-(3-methylphenyl)piperazine] showed an EC50 greater than 300 µM.

For the molecule `COC(=O)c1ccccc1Nc1ccnc(Cl)n1` [methyl 2-[(2-chloropyrimidin-4-yl)amino]benzoate], the EC50 is greater than 300 µM.

In turn, `COc1ccc(-c2nn(CCC#N)cc2CN=O)cc1` gave a concentration giving a half-maximal response (EC50) of 86.3 µM.

In the case of `COc1ccc(Nc2nc(N)c([N+](=O)[O-])c(NCCO)n2)cc1` [2-[6-Amino-2-(4-methoxy-phenylamino)-5-nitro-pyrimidin-4-ylamino]-ethanol], the EC50 came to 2.6 µM.

For the molecule `CCN1/C(=C/C(C)=C/c2sc3ccccc3[n+]2CC)Sc2ccccc21` [SMR000354813], the midpoint of the response, the EC50, lay at 24.7 µM.

`CSCCC(C(=O)NCc1cccs1)N1C(=O)c2ccccc2C1=O` (stereo unspecified) [SMR000150898] gave an EC50 greater than 300 µM.

The molecule `CSc1nc(NCCCO)c2c3c(sc2n1)CN(C)CC3` gave an EC50 of 29.8 µM.

Take `CCCc1cc(C(=O)Nc2cc(Br)ccc2O)no1` [MLS000116375]: the EC50 was greater than 300 µM.

For the molecule `COc1ccc(OC)c(C2Nc3ccccc3N=C3CC(C)(C)CC(=O)C32)c1` (stereo unspecified) [SMR000515998], the EC50 was greater than 300 µM.

Molecule `O=C(CN1C(=O)COc2ccccc21)Nc1ccccc1F` [MLS001205921] yielded an EC50 greater than 300 µM.

`O=C1Nc2ccccc2C1=Cc1cnc[nH]1` [SMR000180717] showed an EC50 of 2.99 µM.

By EC50 is commonly meant the concentration that produces a half-maximal response. A high value points to lower potency in that assay.
